Source: patent publication US8765147B2, “Endophytic fungi from Pteromischum sp. plant, compounds and methods of use” (The Regents of the University of California, priority 2007, dated 2014)

Tests used:
Aspergillus fumigatus = assay: Minimum inhibitory concentration (MIC), 24-well plate, potato dextrose broth; assay type: cell-based
Protocol: (§1) All plant pathogenic fungi used in the bioassay test system were obtained from Drs. Don Mathre and Nina Zidak of the MSU Department of Plant Sciences. All fungi were grown on potato dextrose agar (PDA) at 23° C. and only freshly transferred cultures (4-7 days old) were used in the fungal bioassay tests.
(§2) Assays were performed in sterile 24-well plates with each well containing 500 μl of potato dextrose broth. The plates were incubated from 48-288 hours at 25 C. The MIC was defined as the minimum concentration of compound resulting in no visible growth of the test organism. The compounds were dissolved in methanol which represented less than 0.5% total methanol in each test well. Several small plugs of agar 3×3×3 mm containing actively growing test fungi were then placed into each well with some wells serving as controls.

Botrytis cinerea = assay: as above; assay type: cell-based
Protocol: as §1, §2

Fusarium solani = assay: as above; assay type: cell-based
Protocol: as §1, §2

Geotrichum canididum = assay: as above; assay type: cell-based
Protocol: as §1, §2

Pythium ultimum = assay: as above; assay type: cell-based
Protocol: as §1, §2

Rhizoctonia solani = assay: as above; assay type: cell-based
Protocol: as §1, §2

Sclerotinia sclerotiorum = assay: as above; assay type: cell-based
Protocol: as §1, §2

Trichoderma virde = assay: as above; assay type: cell-based
Protocol: as §1, §2

[1] = system: IL-2 production by activated CD4+ T cells; assay: Inhibition of IL-2 production by activated CD4+ T cells (flow cytometry); assay type: cell-based; conditions: mouse spleen cells activated with ConA, anti-CD3/CD28 for 4 hours
Protocol: Total spleen cells were isolated from C57/B 6 mice and then were preactivated with ConA (1 ug/mL, Sigma-Aldrich, St. Louis, Mo.) for 2 days. These cells were then treated for 4 hours with cross-linked Hamster anti-mouse CD3/CD28 (1 ug/mL, BD Bioscience) antibodies in the Bruff's Medium containing 5% fetal bovine serum and 1× brefeldin A. After the activation, cells were fixed and analyzed for IL-2 production in the activated CD4± T cells using APC-conjugated anti-mouse IL-2 and PE-conjugated anti-mouse CD4 antibodies by flow cytometry.

[2] = system: human peripheral blood mononuclear cells (PBMCs); assay: Toxicity to peripheral blood mononuclear cells (7-AAD / Annexin V flow cytometry); conditions: 24 and 48 hours of culture, versus DMSO controls; cyclosporin result at or above Bug/ml
Protocol: The cells (PBMCs) were then stained with 7-AAD and Annexin V directly conjugated to FITC or PE and subjected to flow cytometry. The percentage of necrotic (7-AAD+/Annexin V+), apoptotic (7-AAD-/Annexin V+) and viable (7-AAD-/Annexin V−) cells were calculated using CellQuest software (BD Biosciences). […] Error bars represent standard deviations between triplicate treatment groups.
Blood was collected from healthy adult donors and peripheral blood mononuclear cells (PBMCs) were purified using Histopaque 1077 (Sigma Aldrich, St. Louis, Mo.) according to the manufacturer's instructions. […] Cells were washed twice with PBS followed by staining with Annexin V directly conjugated to PE or FITC and 7-AAD using the Annexin V Apoptosis Detection Kit I (BD Biosciences, San Jose, Calif.) as per the manufacturer's instructions. Cells were then subjected to flow cytometry on a FACS Calibur equipped with an HTS loader (BD Biosciences, San Jose, Calif.). The staining allowed for differentiation among viable, necrotic and apoptotic cells. The studies were repeated at least three times and the variation between the dead cells detected was recorded as a function of concentration over 24 and 48 hour test periods.

cyclic lipopeptide with a molecular mass of 1127.7 produced by C. dematium fungus CR-12; contains Val-Ile-Ser-Ile [Colutellin A, colutellin A]
MIC (Aspergillus fumigatus; after 48 h): 2.4 µg/mL | MIC (Aspergillus fumigatus; after 144 h): >100 µg/mL | MIC (Aspergillus fumigatus; after 288 h): >100 µg/mL | MIC (Botrytis cinerea; after 48 h): 3.6 µg/mL | MIC (Botrytis cinerea; after 144 h): 10.8 µg/mL | MIC (Botrytis cinerea; after 288 h): 10.8 µg/mL | MIC (Fusarium solani; after 48 h): 7.2 µg/mL | MIC (Fusarium solani; after 144 h): >100 µg/mL | MIC (Fusarium solani; after 288 h): >100 µg/mL | MIC (Geotrichum canididum; after 48 h): 3.6 µg/mL | MIC (Geotrichum canididum; after 144 h): >100 µg/mL | MIC (Geotrichum canididum; after 288 h): >100 µg/mL | MIC (Pythium ultimum; after 48 h): >100 µg/mL | MIC (Pythium ultimum; after 144 h): >100 µg/mL | MIC (Pythium ultimum; after 288 h): >100 µg/mL | MIC (Rhizoctonia solani; after 48 h): >100 µg/mL | MIC (Rhizoctonia solani; after 144 h): >100 µg/mL | MIC (Rhizoctonia solani; after 288 h): >100 µg/mL | MIC (Sclerotinia sclerotiorum; after 48 h): 3.6 µg/mL | MIC (Sclerotinia sclerotiorum; after 144 h): 10.8 µg/mL | MIC (Sclerotinia sclerotiorum; after 288 h): 32.4 µg/mL | MIC (Trichoderma virde; after 48 h): >100 µg/mL | MIC (Trichoderma virde; after 144 h): >100 µg/mL | MIC (Trichoderma virde; after 288 h): >100 µg/mL | IC50 [1]: 167 nM | Cytotoxicity on human PBMCs (necrosis and apoptosis) [2]: did not induce significant cell death above the DMSO controls at any concentration tested
